US6376426B1, “Herbicidal 3-(heterocycl-1-yl)-uracils” (BASF Aktiengesellschaft, priority 1999, dated 2002)

Assays:
Format in all cases: in vivo
Zea mays [1] = assay: Pre-emergence herbicidal test, ZEAMX; parameters: key to herbicidal effect (0-9 scale) ZEAMX / herbicidal rating ZEAMX: A rating 0 indicates growth as untreated control; a rating 9 indicates death; settings: for herbicidal rating ZEAMX: PRE, 0-9 scale, 21 days after spraying
Procedure: (§1) To evaluate their herbicidal activity, compounds according to the invention are tested using a representative range of plants:
(§2) The pre-emergence tests involve spraying a liquid formulation of the compound onto the soil in which the seeds of the plant species mentioned above has recently been sown.
(§3) The soil used in the tests is a prepared horticultural loam. The formulations used in the tests are prepared from solutions of the test compounds in acetone containing 0.4% by weight of an alkylphenol/ethylene oxide condensate available under the trade mark TRITON X-155. […] In these tests untreated sown soil are used as controls.
(§4) The herbicidal effects of the test compounds are assessed visually twenty-one days after spraying the foliage and the soil and are recorded on a 0-9 scale. A rating 0 indicates growth as untreated control, a rating 9 indicates death. An increase of 1 unit on the linear scale approximates to a 10% increase in the level of effect.

Glycine max [2] = assay: Pre-emergence herbicidal test, GLXMA; parameters: key to herbicidal effect (0-9 scale) GLXMA / herbicidal rating GLXMA: A rating 0 indicates growth as untreated control; a rating 9 indicates death; settings: for herbicidal rating GLXMA: PRE, 0-9 scale, 21 days after spraying
Procedure: as §1, §2, §3, §4

Setaria viridis [3] = assay: Pre-emergence herbicidal test, SETVI; parameters: key to herbicidal effect (0-9 scale) SETVI / herbicidal rating SETVI: A rating 0 indicates growth as untreated control; a rating 9 indicates death; settings: PRE, 0-9 scale, 21 days after spraying
Procedure: as §1, §2, §3, §4

Echinochloa crus-galli [4] = assay: Pre-emergence herbicidal test, ECHCG; parameters: key: A rating 0 indicates growth as untreated control; a rating 9 indicates death; settings: 0-9 scale, 21 days after spraying
Procedure: as §1, §2, §3, §4

Alopecurus myosuroides [5] = assay: Pre-emergence herbicidal test, ALOMY; parameters: key to herbicidal effect (0-9 scale) ALOMY / herbicidal rating ALOMY: A rating 0 indicates growth as untreated control; a rating 9 indicates death; settings: for herbicidal rating ALOMY: PRE, 0-9 scale, 21 days after spraying
Procedure: as §1, §2, §3, §4

Ipomoea hederacea [6] = assay: Pre-emergence herbicidal test, IPOHE; parameters: key: A rating 0 indicates growth as untreated control; a rating 9 indicates death; settings: 0-9 scale, 21 days after spraying
Procedure: as §1, §2, §3, §4

Galium aparine [7] = assay: Pre-emergence herbicidal test, GALAP; parameters: key to herbicidal effect (0-9 scale) GALAP / herbicidal rating GALAP: A rating 0 indicates growth as untreated control; a rating 9 indicates death; settings: PRE, 0-9 scale, 21 days after spraying
Procedure: as §1, §2, §3, §4

Abutilon theophrasti [8] = assay: Pre-emergence herbicidal test, ABUTH; parameters: key to herbicidal effect (0-9 scale) ABUTH / herbicidal rating ABUTH: A rating 0 indicates growth as untreated control; a rating 9 indicates death; settings: PRE, 0-9 scale, 21 days after spraying
Procedure: as §1, §2, §3, §4

Stellaria media [9] = assay: Pre-emergence herbicidal test, STEME; parameters: key to herbicidal effect (0-9 scale) STEME / herbicidal rating STEME: A rating 0 indicates growth as untreated control; a rating 9 indicates death; settings: PRE, 0-9 scale, 21 days after spraying
Procedure: as §1, §2, §3, §4

Matricaria inodora [10] = assay: Pre-emergence herbicidal test, MATIN; parameters: key to herbicidal effect (0-9 scale) MATIN / herbicidal rating MATIN: A rating 0 indicates growth as untreated control; a rating 9 indicates death; settings: PRE, 0-9 scale, 21 days after spraying
Procedure: as §1, §2, §3, §4

Zea mays [11] = assay: Post-emergence herbicidal test, ZEAMX; parameters: key: A rating 0 indicates growth as untreated control; a rating 9 indicates death; settings: 0-9 scale, 21 days after spraying
Procedure: as §1
(§5) […] After spraying, the plants are placed on greenhouse benches and are cared for in the usual manner, commensurate with conventional greenhouse practices.
as §4

Glycine max [12] = assay: Post-emergence herbicidal test, GLXMA; parameters: key: A rating 0 indicates growth as untreated control; a rating 9 indicates death; settings: 0-9 scale, 21 days after spraying
Procedure: as §1, §5, §4

Setaria viridis [13] = assay: Post-emergence herbicidal test, SETVI; parameters: key to herbicidal effect (0-9 scale) SETVI / herbicidal rating SETVI: A rating 0 indicates growth as untreated control; a rating 9 indicates death; settings: POST, 0-9 scale, 21 days after spraying
Procedure: as §1, §5, §4

Echinochloa crus-galli [14] = assay: Post-emergence herbicidal test, ECHCG; parameters: key: A rating 0 indicates growth as untreated control; a rating 9 indicates death; settings: 0-9 scale, 21 days after spraying
Procedure: as §1, §5, §4

Alopecurus myosuroides [15] = assay: Post-emergence herbicidal test, ALOMY; parameters: key: A rating 0 indicates growth as untreated control; a rating 9 indicates death; settings: 0-9 scale, 21 days after spraying
Procedure: as §1, §5, §4

Ipomoea hederacea [16] = assay: Post-emergence herbicidal test, IPOHE; parameters: key to herbicidal effect (0-9 scale) IPOHE / herbicidal rating IPOHE: A rating 0 indicates growth as untreated control; a rating 9 indicates death; settings: POST, 0-9 scale, 21 days after spraying
Procedure: as §1, §5, §4

Galium aparine [17] = assay: Post-emergence herbicidal test, GALAP; parameters: key to herbicidal effect (0-9 scale) GALAP / herbicidal rating GALAP: A rating 0 indicates growth as untreated control; a rating 9 indicates death; settings: POST, 0-9 scale, 21 days after spraying
Procedure: as §1, §5, §4

Abutilon theophrasti [18] = assay: Post-emergence herbicidal test, ABUTH; parameters: key to herbicidal effect (0-9 scale) ABUTH / herbicidal rating ABUTH: A rating 0 indicates growth as untreated control; a rating 9 indicates death; settings: POST, 0-9 scale, 21 days after spraying
Procedure: as §1, §5, §4

Stellaria media [19] = assay: Post-emergence herbicidal test, STEME; parameters: key to herbicidal effect (0-9 scale) STEME / herbicidal rating STEME: A rating 0 indicates growth as untreated control; a rating 9 indicates death; settings: POST, 0-9 scale, 21 days after spraying
Procedure: as §1, §5, §4

Matricaria inodora [20] = assay: Post-emergence herbicidal test, MATIN; parameters: key to herbicidal effect (0-9 scale) MATIN / herbicidal rating MATIN: A rating 0 indicates growth as untreated control; a rating 9 indicates death; settings: POST, 0-9 scale, 21 days after spraying
Procedure: as §1, §5, §4

[21] = system: representative range of plants; assay: Pre-emergence herbicidal test, summary over the plants tested; settings: 100 g/ha
Procedure: as §1, §2, §3, §4

[22] = system: representative range of plants; assay: Post-emergence herbicidal test, summary over the plants tested
Procedure: as §1, §5, §4

[23] = system: representative range of plants; assay: Herbicidal activity, pre- and post-emergence, overall; settings: both in pre- and post-emergence
Procedure: as §1, §2
The soil used in the tests is a prepared horticultural loam. The formulations used in the tests are prepared from solutions of the test compounds in acetone containing 0.4% by weight of an alkylphenol/ethylene oxide condensate available under the trade mark TRITON X-155. These acetone solutions are diluted with water and the resulting formulations applied at dosage levels corresponding to 1000 g and 250 g/ha of active material per hectare in a volume equivalent to 900 litres per hectare. In these tests untreated sown soil are used as controls.
These acetone solutions are diluted with water and the resulting formulations applied at dosage levels equivalent to about 1000, 800, 400, 250 or 100 g/ha per hectare of test compound per pot. After spraying, the plants are placed on greenhouse benches and are cared for in the usual manner, commensurate with conventional greenhouse practices.
as §4

With `Cn1c(C(F)(F)F)cc(=O)n(-n2ncc3c(Cl)cccc32)c1=O` [Example 168, 3-(4-Chloro-1-indazol-1-yl)-1-methyl-6trifluoromethylpyrimidine-2,4-dione] the “herbicidal rating ZEAMX” value (Zea mays [1]; 12.5 g/ha) was 0, the “herbicidal rating ZEAMX” value (Zea mays [1]; 25 g/ha) was 0 and the “herbicidal rating ZEAMX” value (Zea mays [1]; 100 g/ha) was 1. For the same compound, the “selectivity in maize” value (Zea mays [1]; pre-emergence, 100 g/ha) was “Surprisingly good selectivity”, the “herbicidal rating GLXMA” value (Glycine max [2]; 12.5 g/ha) was 0 and the “herbicidal rating GLXMA” value (Glycine max [2]; 25 g/ha) was 0. The “herbicidal rating GLXMA” value (Glycine max [2]; 100 g/ha) was 0, the “selectivity in soy beans” value (Glycine max [2]; pre-emergence, 100 g/ha) was “Surprisingly good selectivity” and the “herbicidal rating SETVI” value (Setaria viridis [3]; 12.5 g/ha) was 2. For the same compound, the “herbicidal rating SETVI” value (Setaria viridis [3]; 25 g/ha) was 5, the “herbicidal rating SETVI” value (Setaria viridis [3]; 100 g/ha) was 9 and the “herbicidal rating ECHCG” value (Echinochloa crus-galli [4]; 12.5 g/ha) was 0. For the same compound, the “herbicidal rating ECHCG” value (Echinochloa crus-galli [4]; 25 g/ha) was 1, the “herbicidal rating ECHCG” value (Echinochloa crus-galli [4]; 100 g/ha) was 6 and the “herbicidal rating ALOMY” value (Alopecurus myosuroides [5]; 12.5 g/ha) was 0. For the same compound, the “herbicidal rating ALOMY” value (Alopecurus myosuroides [5]; 25 g/ha) was 0, the “herbicidal rating ALOMY” value (Alopecurus myosuroides [5]; 100 g/ha) was 2 and the “control of Alopecurus” value (Alopecurus myosuroides [5]; pre-emergence, 100 g/ha) was “well controlled”. The “herbicidal rating IPOHE” value (Ipomoea hederacea [6]; 12.5 g/ha) was 0, the “herbicidal rating IPOHE” value (Ipomoea hederacea [6]; 25 g/ha) was 3 and the “herbicidal rating IPOHE” value (Ipomoea hederacea [6]; 100 g/ha) was 7. The “herbicidal rating GALAP” value (Galium aparine [7]; 12.5 g/ha) was 3, the “herbicidal rating GALAP” value (Galium aparine [7]; 25 g/ha) was 6 and the “herbicidal rating GALAP” value (Galium aparine [7]; 100 g/ha) was 9. The “herbicidal rating ABUTH” value (Abutilon theophrasti [8]; 12.5 g/ha) was 9, the “herbicidal rating ABUTH” value (Abutilon theophrasti [8]; 25 g/ha) was 9 and the “herbicidal rating ABUTH” value (Abutilon theophrasti [8]; 100 g/ha) was 9. For the same compound, the “herbicidal rating STEME” value (Stellaria media [9]; 12.5 g/ha) was 1, the “herbicidal rating STEME” value (Stellaria media [9]; 25 g/ha) was 3 and the “herbicidal rating STEME” value (Stellaria media [9]; 100 g/ha) was 9. For the same compound, the “herbicidal rating MATIN” value (Matricaria inodora [10]; 12.5 g/ha) was 8, the “herbicidal rating MATIN” value (Matricaria inodora [10]; 25 g/ha) was 8 and the “herbicidal rating MATIN” value (Matricaria inodora [10]; 100 g/ha) was 9. The “herbicidal rating ZEAMX” value (Zea mays [11]; 12.5 g/ha) was 0, the “herbicidal rating ZEAMX” value (Zea mays [11]; 25 g/ha) was 1 and the “herbicidal rating ZEAMX” value (Zea mays [11]; 100 g/ha) was 3. The “herbicidal rating GLXMA” value (Glycine max [12]; 12.5 g/ha) was 5, the “herbicidal rating GLXMA” value (Glycine max [12]; 25 g/ha) was 6 and the “herbicidal rating GLXMA” value (Glycine max [12]; 100 g/ha) was 9. For the same compound, the “herbicidal rating SETVI” value (Setaria viridis [13]; 12.5 g/ha) was 6, the “herbicidal rating SETVI” value (Setaria viridis [13]; 25 g/ha) was 7 and the “herbicidal rating SETVI” value (Setaria viridis [13]; 100 g/ha) was 9. For the same compound, the “herbicidal rating ECHCG” value (Echinochloa crus-galli [14]; 12.5 g/ha) was 0, the “herbicidal rating ECHCG” value (Echinochloa crus-galli [14]; 25 g/ha) was 2 and the “herbicidal rating ECHCG” value (Echinochloa crus-galli [14]; 100 g/ha) was 8. For the same compound, the “herbicidal rating ALOMY” value (Alopecurus myosuroides [15]; 12.5 g/ha) was 0, the “herbicidal rating ALOMY” value (Alopecurus myosuroides [15]; 25 g/ha) was 1 and the “herbicidal rating ALOMY” value (Alopecurus myosuroides [15]; 100 g/ha) was 3. For the same compound, the “herbicidal rating IPOHE” value (Ipomoea hederacea [16]; 12.5 g/ha) was 9, the “herbicidal rating IPOHE” value (Ipomoea hederacea [16]; 25 g/ha) was 9 and the “herbicidal rating IPOHE” value (Ipomoea hederacea [16]; 100 g/ha) was 9. For the same compound, the “herbicidal rating GALAP” value (Galium aparine [17]; 12.5 g/ha) was 9, the “herbicidal rating GALAP” value (Galium aparine [17]; 25 g/ha) was 9 and the “herbicidal rating GALAP” value (Galium aparine [17]; 100 g/ha) was 9. The “herbicidal rating ABUTH” value (Abutilon theophrasti [18]; 12.5 g/ha) was 9, the “herbicidal rating ABUTH” value (Abutilon theophrasti [18]; 25 g/ha) was 9 and the “herbicidal rating ABUTH” value (Abutilon theophrasti [18]; 100 g/ha) was 9. The “herbicidal rating STEME” value (Stellaria media [19]; 12.5 g/ha) was 7, the “herbicidal rating STEME” value (Stellaria media [19]; 25 g/ha) was 7 and the “herbicidal rating STEME” value (Stellaria media [19]; 100 g/ha) was 9. The “herbicidal rating MATIN” value (Matricaria inodora [20]; 12.5 g/ha) was 8, the “herbicidal rating MATIN” value (Matricaria inodora [20]; 25 g/ha) was 9 and the “herbicidal rating MATIN” value (Matricaria inodora [20]; 100 g/ha) was 9. For the same compound, the “control of the weeds” value [21] was “four out of five broadleaf weeds were well controlled”, the “control of broadleaf weeds” value ([22]; 12.5 g/ha) was “all broadleaf weeds were still well controlled” and the “control of the weeds” value ([22]; 100 g/ha) was “good cross spectrum control on both broadleaf weeds and grasses except Alopecurus and Echinochloa”. For the same compound, the “herbicidal performance” value [23] was “good performance”.
